Data set [1] deals with collagen-induced arthritis model. The data set is described as follows: Arthritis Study B: collagen-induced arthritis, clinical effects (Example 11). The format is in vivo, DBA/1J mice. Particulars: DBA/1J mice, 20 mg/kg s.c. twice a week for ten weeks, end of study. The procedure: The effect of inhibition of Factor XI and its role in fibrin accumulation in the joints leading to joint inflammation and rheumatoid arthritis was evaluated in a murine collagen-induced arthritis (CIA) model. […] Arthritis induced in mice administered collagen can be visually assessed and clinically scored as described by Marty et al. (J Clin Invest, 107:631-640, 2001) where 1 point is given for each swollen digit except the thumb (maximum, 4), 1 point is given for the tarsal or carpal joint, and 1 point is given for the metatarsal or metacarpal joint with a maximum score of […]. Each paw was graded individually, the cumulative clinical arthritic score per mouse reaching a maximum of 22 points
(§1) In a group of 20 DBA/1J mice, 20 mg/kg of ISIS 404071 were injected subcutaneously twice a week for ten weeks. In a second group of 20 DBA/1J mice, 20 mg/kg of ISIS 404057 were injected subcutaneously twice a week for ten weeks. In a third control group of 20 DBA/1J mice, 20 mg/kg of ISIS 421208 were injected subcutaneously twice a week for ten weeks. Two control groups of 20 mice each were injected with PBS twice a week for ten weeks.
Two and a half weeks after the first oligonucleotide dose, type II bovine collagen in complete Freund's adjuvant was injected subcutaneously at the base of the tail in all the experimental groups and one PBS control group. A booster injection containing 100 μg collagen type II in incomplete Freund's adjuvant was injected subcutaneously at the base of the tail at a different injection site on day 21 after the first collagen injection in these groups.
(§2) Mice in all groups were examined daily after day 30 after the first collagen injection for the visual appearance of arthritis in peripheral joints. The results in Table 22 are expressed as percent change compared to the PBS control except for the liver and spleen weight.

The nature of data set [2]: Arthritis Study B: liver and spleen weight, ALT, AST. The format is in vivo. Particulars: collagen-treated DBA/1J mice, 20 mg/kg s.c. twice a week for ten weeks. The procedure:
as §1, §2

Data set [3] relates to DSS-induced colitis model. The data set is described as follows: Colitis Study B: body weight and colon length. The format is in vivo, Swiss Webb mice. Particulars: DSS-induced colitis, day 7, 20 mg/kg s.c. twice a week for 3 weeks, percent change compared to the PBS control. As to the method:
(§3) In a first group of 8 Swiss Webb mice, 20 mg/kg of ISIS 404071 was injected subcutaneously twice a week for 3 weeks. In a second group of 8 Swiss Webb mice, 20 mg/kg of ISIS 404057 was subcutaneously injected twice a week for 3 weeks. In a third control group of 8 Swiss Webb mice, 20 mg/kg of ISISI 421208 was injected subcutaneously twice a week for 3 weeks. Two control groups of 8 mice each were injected with PBS twice a week for 3 weeks. After the oligonucleotide treatment, 4% DSS in water was administered ad libitum for 6 days to all the experimental groups and one PBS control group.
(§4) Mice in all groups were weighed at day 0 and daily after administration of DSS. Mice were sacrificed at the end of the study on day 7 after DSS was administered, their livers and colons were harvested for RNA analysis, and their body weights and colon lengths were measured.

Data set [4] concerns murine Factor XI mRNA. The data set can be described thus: Colitis Study B: Factor XI mRNA in the liver. Type of data set: in vivo, Swiss Webb mice. Particulars: DSS-induced colitis, day 7, 20 mg/kg s.c. twice a week for 3 weeks, percent change compared to the PBS control. As to the method: as §3, §4
RT-PCR analysis of Factor XI mRNA was performed. As presented in Table 27 and FIG. 10, antisense oligonucleotides targeting Factor XI achieved statistically significant dose-dependent reduction of murine Factor XI over the PBS control in the liver. All the measurements are normalized to cyclophilin.
All the results in Table 27 are expressed as percent change compared to the PBS control.

The subject of data set [5] is OVA/alum-induced asthma model. The data set is described as follows: OVA-induced asthma model: BAL eosinophil recruitment (Example 13). Particulars: percentage of total cells in BAL, 50 mg/kg s.c. twice a week for 4 weeks. The format is in vivo, BALB/c mice. As to the method:
The effect of antisense oligonucleotide inhibition of Factor XI and its role in ameliorating asthma was evaluated in an OVA/alum-induced asthma model. Administration of ovalbumin to animals is a well known method to induce […] and has been previously described by Henderson et al. (J. Exp. Med., 1996, 184: 1483-1494).
(§5) The mice were divided into four treatment groups of 5 mice each. One group received subcutaneous injections of ISIS 404071 at a dose of 50 mg/kg twice a week for 4 weeks. One group of mice received subcutaneous injections of control oligonucleotide, ISIS 421208, which is a mismatch oligonucleotide sequence of ISIS 404071, at a dose of 50 mg/kg twice a week for 4 weeks. Two groups of mice received subcutaneous injections of PBS twice a week for 4 weeks. One PBS group remained untreated and served as the control group. The second PBS group and both the oligonucleotide treated groups were injected with OVA/alum on days 0 and 14 and nebulized with OVA in PBS on days 24, 25, and 26. The first OVA application served to sensitize the mice against OVA while the second was a challenge application to provoke an asthmatic reaction. Two days following the final dose, the mice were euthanized, bronchial lavage (BAL) was collected and analyses done.
Bronchial asthma, even in its mild form, is characterized by local infiltration and activation of inflammatory and immunoeffector cells, including T lymphocytes, macrophages, eosinophils, and mast cells (Smith D. L. et al., Am. Rev. Respir. Dis. 1993. 148: 523-532). The effect of treatment with ISIS 404071 on bronchoalveolar lavage (BAL) eosinophil recruitment was assessed. BAL cells were stained with hemotoxylin and eosin (H&E). The results are presented in Table 49 as a percentage of total cells in BAL.

Data set [6] has as its system OVA/alum-induced asthma model. The data set can be described thus: OVA-induced asthma model: mucus production (Example 13). Type of data set: in vivo, BALB/c mice. Particulars: BALB/c mice, 50 mg/kg s.c. twice a week for 4 weeks, PAS stain of lung sections. As to the method: as §5
Lung sections were stained with periodic acid […] (PAS) base stain that stains mucus, which is produced during asthma attacks (Rogers, D. F. Curr. Opin Pharmacol. 2004. 4: 241-250). The number of airways containing mucus as a percentage of the total airways in the lungs was evaluated.

Data set [7] deals with DSS-induced colitis model. The data set can be described thus: Colitis Study E: weight change, colon length, stool analysis. The format is in vivo, Swiss Webb mice. Particulars: Colitis Study E, day 7. As to the method: (§6) Two groups 8 Swiss Webb mice were dosed with 40 mg/kg of ISIS 404071 injected subcutaneously twice a week for 3 weeks. Two control groups of 8 Swiss Webb mice were dosed with PBS subcutaneously twice a week for 3 weeks. Both the ASO treated groups and one of the control groups were then given 4% DSS in distilled water for 7 days ad libitum. One of the ASO and DSS treated groups was also given intravenous injections of 20 μg of recombinant human Factor XI protein (Haematologic Technologies Inc.) for 7 consecutive days, starting the day before DSS treatment. Mice were sacrificed at the end of the study on day 7 after DSS was administered.
Mice in all groups were weighed at day 0 and at the end of the study. […] Mice were sacrificed at the end of the study on day 7 after DSS was administered and their colon lengths were measured.

Data set [8] relates to thrombin-antithrombin (TAT) complexes. The data set is described as follows: Colitis Study E: TAT levels. Type of data set: in vivo, Swiss Webb mice. Particulars: Colitis Study E, day 7. The procedure: as §6
Mice with dextran sodium sulfate (DSS)-induced colitis have elevated level of thrombin-antithrombin (TAT) complexes in blood (Anthoni, C. et al., J. Exp. Med. 204: 1595-1601, 2007) and is also observed in patients with ulcerative colitis (Kume, K. et al., Intern Med. 2007. 46: 1323-9). The effect of antisense inhibition of Factor XI on TAT levels in the […] was evaluated (Siemens Healthcare Diagnostics, Deerfield, Ill.) at the end of the study on day 7 after DSS was administered and the results are presented in Table 38.

Data set [9] concerns soluble CD40 ligand (CD40L). The data set can be described thus: Colitis Study E: CD40L plasma levels. Type of data set: in vivo, Swiss Webb mice. Particulars: Colitis Study E, day 7. As to the method:
as §6
Plasma levels of soluble CD40 ligand (CD40L) are known to be elevated in cases of inflammatory bowel disease (Ludwiczek, O. et al., Int. J. Colorectal Disease. 2003. 18: 142-147) and may be considered a marker of intestinal inflammation. The effect of antisense inhibition of Factor XI on CD40L levels in the plasma was evaluated at the end of the study on day 7 after DSS was administered and the results are presented in Table 39. CD40L levels in plasma were measured by commercially available ELISA kits (Bender MedSystems, Vienna, Austria, eBioscience, San Diego, Calif.) according to the manufacture's protocols.

Data set [10] relates to bradykinin. The data set can be described thus: Colitis Study E: bradykinin levels in colon. Type of data set: in vivo, Swiss Webb mice. Particulars: Colitis Study E, day 7. As to the method:
as §6
The effect of antisense inhibition of Factor XI on kinin levels in the colon was evaluated (Phoenix Pharmaceuticals, Burlingame, Calif.) at the end of the study on day 7 after DSS was administered and the results are presented in Table 40.

In data set [11] the test system is IFN-γ, IL-10, IL-12, IL-1β, IL-2, IL-4, IL-5, TNF-α, KC. The data set is described as follows: Colitis Study E: cytokine levels in colon (multiplex ELISA). Type of data set: in vivo, Swiss Webb mice. Particulars: Colitis Study E, day 7. The procedure: as §6
The cytokine levels of IFN-γ, IL-10, IL-12, IL-1β, IL-2, IL-4, IL-5, TNF-α, and keratinocyte chemoattractant (KC) were measured in the colon of the mice groups at the end of the study on day 7 after DSS was administered. Colons were homogenized on ice in PBS supplemented with protease inhibitors (Sigma, St. Louis, Mo.) and extracted with rotation at 4° C. for 1 hour. After removal of insoluble material by centrifugation, colon homogenates were used for the cytokine analysis by multiplex ELISA (Mouse TH1/TH2 9-Plex Ultra-Sensitive Kit, Meso Scale Discovery, Gaithersburg, Md.) according to the manufacture's protocol. Cytokine levels in colon extracts were normalized to the protein concentration measured by protein assay kit (BioRad, Hercules, Calif.). The levels of pro-inflammatory cytokines, IFN-γ, IL-1β, IL-10, IL-2, IL-5, TNF-α, and KC were elevated by DSS administration, and were decreased by treatment with ISIS 404071.
For orientation: An ELISA detects its analyte on a solid surface through an enzyme-linked reagent.

In the oligonucleotide strings, read from the 5' end, every base follows the letter of its sugar. An asterisk marks phosphorothioate; unmarked linkages are phosphodiester. Other units and linkages are bracketed, terminal groups are in braces. A string of capitals states the bases alone. e = 2'-O-(2-methoxyethyl) (MOE); [5mC] = 5-methylcytosine; d = 2'-deoxy (DNA)

As for “TCGGAAGC GACTCTTATATG (eT*e[5mC]*eG*eG*eA*dA*dG*d[5mC]*dG*dA*d[5mC]*dT*d[5mC]*dT*dT*eA*eT*eA*eT*eG) [ISIS 421208, control oligonucleotide for ISIS 404071 with 8 mismatches, 5-10-5 MOE gapmer, reference compound]”, in data set [1], the “% of CIA” value is 81%, the “% of paws affected” value was 45%, the “Average no. of paws affected” value came out at 1.7 and the “Clinical severity of CIA” value came to 7.75. Besides, in [2], the “Liver ALT” value was found to be 70.06, the “Liver AST” value came out at 165.12, the “Liver Weight as a % of Body Weight” value worked out at 6.14% and the “Spleen Weight as a % of Body Weight” value is recorded as 0.718 % of Body Weight. Also, in [3], the Body weight is on record as −10% and the Colon length is given as −33%. Besides, the “Liver Factor XI mRNA” value in [4] was “+25%”. This substance gave an Eosinophils in data set [5] of 51%. For the same substance, the “Mucus production, % airways containing mucus” value in [6] is recorded as 49 % airways.

On to “recombinant Factor XI protein: recombinant human Factor XI protein (Haematologic Technologies Inc.)”, for which, in data set [7], the “colon length (in words)” value was “increase in colon length due to treatment with ISIS 404071 is eliminated” and the “stool softness/diarrhea (in words)” value is given as “amelioration of diarrhea in mice treated with ISIS 404071 is eliminated”. Further, the “TAT levels (in words)” value in data set [8] is listed as “near restoration of TAT levels to that of the DSS treated mice”. Further, the “CD40L levels in plasma (in words)” value in [9] is reported as “restoration of CD40L levels to that of the DSS treated mice”. Besides, the “bradykinin levels (in words)” value in [10] is listed as “restoration of bradykinin levels to that of the DSS treated mice”. In data set [11], the “pro-inflammatory cytokine levels in colon: IFN-γ, IL-1β, IL-10, IL-2, IL-5, TNF-α, KC (in words)” value is “restoration of cytokine levels to that of the DSS treated mice”.

The values are drawn from patent US20120083522A1, “MODULATION OF INFLAMMATORY RESPONSES BY FACTOR XI” (Isis Pharmaceuitcals, inc., priority 2009, published 2012).
